Reference: PMC6407204, “Oral administration of the cannabigerol derivative VCE-003.2 promotes subventricular zone neurogenesis and protects against mutant huntingtin-induced neurodegeneration” (Translational Neurodegeneration, 2019)

System: mutant huntingtin-induced neurodegeneration
Assay: Viral model of Huntington's disease, AAV expression of mutant huntingtin (AAV-htt94Q) in mouse striatum
Assay type: in vivo, C57BL/6 N mice
Conditions: 10 mg/kg/day oral
Method: Male C57BL/6 N mice (10 weeks old) were housed under standard conditions (12-h light/dark cycle) in groups with access to food and water ad libitum. All experiments were performed in accordance with European Union guidelines and approved by the Animal Research Ethics Committee of Complutense and Córdoba University. Procedures were designed to minimize the number of animals used and their suffering. Constructs expressing CFP-tagged human huntingtin exon 1 harboring a pathogenic polyQ tract of 94 CAG repeats or a normal, non-pathogenic polyQ tract of 16 CAG repeats (kindly provided by Dr. José J. Lucas, Severo Ochoa Molecular Biology Center, Madrid, Spain) were employed using an AAV1/AAV2 mixed serotype, generated by polyethyleneimine transfection of HEK293T cells and subsequent purification in iodixanol gradient. Vectors were injected stereotactically (in 3 μl PBS) into the dorsal striatum in a bilateral manner at coordinates (mm to bregma): antero-posterior + 0.5, lateral ±2.5, dorso-ventral − 3.5 as previously described. VCE-003.2 (10 mg/kg) or vehicle (sesame oil) were orally administered once daily (Fig. 1), and for neurogenesis experiments BrdU (100 mg/kg) was administered i.p. twice daily on the first week after viral injection. RotaRod test was conducted prior to drug injections to avoid acute effects of the compounds under investigation. RotaRod started at 4 rpm, with an acceleration rate of 6 rpm/min until either maximum speed is reached or the mouse falls from the apparatus. Maximum time assay was 10 min. Basal RotaRod performance was determined 6 days prior to striatal injury in 3 consecutive days with 3 trials/day (30 min of rest between each trial), and groups with equivalent motor function were assigned. RotaRod test was performed during 3 consecutive days prior to sacrifice and plasma was obtained for peripheral biomarker analyses. All experiments included a minimum of 6 mice per condition. The precise number of animals analyzed in each experiment is indicated in the corresponding figure legends.
Free floating coronal brain slices (30 μm) were processed as previously described. In brief, after blocking with 10% goat serum, brain sections were incubated with the indicated primary antibodies followed by secondary antibody incubation (2 h at room temperature). The appropriate mouse, rat and rabbit highly cross-adsorbed AlexaFluor 488, AlexaFluor 594 and AlexaFluor 647 secondary antibodies (1:500; Molecular Probes, Leyden, The Netherlands) were used. Samples were subsequently incubated with DAPI (1:5000, Roche) for 10 min, washed with PBS and mounted in Mowiol. All immunofluorescence data were obtained in a blinded manner by independent observers in a minimum of 6 correlative slices, from 1-in-10 series located between − 0.4 to + 1.6 mm to bregma. The lateral SVZ zone was delineated by using DAPI-counterstained cell nuclei, and analyses were performed in the upper dorsal tier, in which positively-labelled cells and immunoreactivity were quantified not beyond 100 μm of the SVZ. Confocal fluorescence images were acquired by using LAS-X software (Wetzlar, Germany) and SP8 microscope with 2 passes by Kalman filter, a 1024X1024 collection box, and pinhole AU 1. […] Cells were quantified within a 20 × 20 μm counting frame, which randomly sampled within a 122.8 × 68.9 μm counting grid. Cells that contacted the lateral or upper exclusion plane were excluded. The total number of cells counted was divided by the number of sampled counting frames and multiplied by its size to obtain the density of positive cells. Co-localization was confirmed by orthogonal projection of 18 z-stack files (1-μm each), and data were expressed as cells/mm^2. […]

[1] = AAV-htt16Q and AAV-htt94Q mice, 30 days
[2] = AAV-htt94Q mice, 4 weeks after lesion

## CCCCCC1=C(NCC)C(=O)C(CC=C(C)CCC=C(C)C)=C(O)C1=O [VCE-003.2, 2-(3,7-dimethyl-octa-2,6-dienyl)-6-ethylamino-3-hydroxy-5-pentyl-(1,4) benzoquinone]
[1]
  doublecortin-positive neuroblasts in striatum: increased doublecortin-expressing cells
  effective neurogenesis, double-positive NeuN/BrdU neurons: effective in promoting neurogenesis
[2]
  Ascl1-positive transit amplifying progenitors: further promoted Ascl1-positive cell expansion
  proliferating SVZ neural stem cells, GFAP/Ki-67 double-labelled: increased the number of proliferating GFAP-positive cells
AAV-htt94Q mice, 14 days, vs vehicle
  motor performance, RotaRod latency to fall: performed better in the RotaRod test
AAV-htt94Q mice, 30 days after lesion
  MSN degeneration, DARPP-32 and NeuN immunofluorescence: prevented htt94Q-induced MSN degeneration
AAV-htt94Q mice, vs vehicle
  microglial activation, Iba1 immunoreactivity: reduced microglial activation
